Experimental data: ChEMBL document CHEMBL3352048, “Development of 2-(4-oxoquinazolin-3(4H)-yl)acetamide derivatives as novel enoyl-acyl carrier protein reductase (InhA) inhibitors for the treatment of tuberculosis” (Eur J Med Chem, 2014)

Tested on: Mycobacterium tuberculosis
Assay: Antimycobacterial activity against isoniazid, rifampicin, ofloxacin and kanamycin-resistant Mycobacterium tuberculosis H37Rv ATCC 27294 clinical isolate after 28 days by two-fold serial dilution assay in presence of […] piperine efflux pump inhibitor
Type: functional
Details: H37Rv ATCC 27294, 672 h

Row | SMILES | MIC
1 | O=C(Cn1cnc2ccccc2c1=O)NCc1nc2ccc([N+](=O)[O-])cc2s1 | 4.09 µM
2 | O=C(Cn1cnc2ccccc2c1=O)Nc1cc(C(F)(F)F)ccc1Cl | 8.18 µM
3 | O=C(Cn1cnc2ccc(Cl)cc2c1=O)NCc1ccco1 | 39.3 µM
4 | Cc1nc2ccc(Cl)cc2c(=O)n1CC(=O)Nc1ccccc1 | 19.1 µM
5 | O=C(Cn1cnc2ccc(Cl)cc2c1=O)NCc1cccs1 | 37.4 µM
6 | O=C(Cn1cnc2ccccc2c1=O)NCc1cccs1 | 20.9 µM
7 | Cc1nc2ccccc2c(=O)n1CC(=O)NCc1cccs1 | 19.9 µM
8 | O=C(Cn1cnc2ccccc2c1=O)Nc1ccccc1 | 22.4 µM
9 | CO[C@H]1/C=C/O[C@@]2(C)Oc3c(C)c(O)c4c(O)c(c(/C=N/N5CCN(C)CC5)c(O)c4c3C2=O)NC(=O)/C(C)=C\C=C\[C@H](C)[C@H](O)[C@@H](C)[C@@H](O)[C@@H](C)[C@H](OC(C)=O)[C@@H]1C [RIFAMPIN] | 30.4 µM
10 | Cc1nc2ccc(Cl)cc2c(=O)n1CC(=O)NCc1ccco1 | 18.8 µM
11 | O=C(Cn1cnc2ccccc2c1=O)NCc1ccco1 | 11 µM
12 | CC[C@@H](CO)NCCN[C@@H](CC)CO [ETHAMBUTOL] | 245 µM
13 | NNC(=O)c1ccncc1 [ISONIAZID] | 45.6 µM
14 | O=C(Cn1cnc2ccc(Cl)cc2c1=O)Nc1cc(C(F)(F)F)ccc1Cl | 60.1 µM
15 | O=C(Cn1cnc2ccc(Cl)cc2c1=O)Nc1ccccc1 | 39.8 µM
